Non-standard residues stand in square brackets, D forms with d. Residues, ends and D or L forms follow the SMILES beside them. ξ: configuration not given here. *: point of attachment. Dansyl = CN(C)c1cccc2c(S(=O)(=O)*)cccc12; ξPip = O=C(O)C1CCCCN1
Test system: not listed separately
Assay: acute toxicity (LD50), intraperitoneal administration in mice
Type: in vivo, mice (male, 20 g)
Conditions: comparison with N^2 -dansyl-L-argininamides; route and species not restated

SMILES | LD50 values (comparison dansyl compounds) [milligrams per kilogram]
CCCCNC(=O)[C@H](CCCNC(=N)N)NS(=O)(=O)c1cccc2c(N(C)C)cccc12 [N^2 -dansyl-N-butyl-L-argininamide, reference compound] | 75
CCCCN(C)C(=O)[C@H](CCCNC(=N)N)NS(=O)(=O)c1cccc2c(N(C)C)cccc12 [N^2 -dansyl-N-methyl-N-butyl-L-argininamide, reference compound] | 70

Same assay, conditions: intraperitoneal, mice (male, 20 g)

SMILES | LD50
COc1cc2ccc(S(=O)(=O)N[C@@H](CCCNC(=N)N)C(=O)N(CC(=O)O)C3CCCCC3)cc2cc1OC [N^2-(6,7-dimethoxy-2-naphthylsulfonyl)-L-arginyl-N-cyclohexylglycine] | > 1,500 mg/kg

Same assay, conditions: mouse, in vivo, ip, intraperitoneal, mice (male, 20 g); read-out: LD50

SMILES | LD50 [mg/kg]
COc1cc2ccc(S(=O)(=O)N[C@@H](CCCNC(=N)N)C(=O)N(CC(=O)O)CC3CCCCC3)cc2cc1OC [N^2-(6,7-dimethoxy-2-naphthylsulfonyl)-L-arginyl-N-cyclohexylmethylglycine] | > 1500
COCCN(CC(=O)O)C(=O)[C@H](CCCNC(=N)N)NS(=O)(=O)c1ccc2ccc(OC)cc2c1 [N^2-(7-methoxy-2-naphthylsulfonyl)-L-arginyl-N-(2-methoxyethyl)glycine] | 2000
COc1cc2ccc(S(=O)(=O)N[C@@H](CCCNC(=N)N)C(=O)N(CC(=O)O)CC3CCCO3)cc2cc1OC (stereo partly drawn) [N^2-(6,7-dimethoxy-2-naphthylsulfonyl)-L-arginyl-N-tetrahydrofurfurylglycine] | 620
CN(C)c1cccc2c(S(=O)(=O)N[C@@H](CCCNC(=N)N)C(=O)N3CCCCC3C(=O)O)cccc12 (stereo partly drawn) [1-N^2-(5-dimethylamino-1-naphthylsulfonyl)-L-arginyl!-2-piperidinecarboxylic acid] (Dansyl-Arg-[ξPip]-OH) | 700 to 1000
COCCN(CC(=O)O)C(=O)[C@H](CCCNC(=N)N)NS(=O)(=O)c1cc(OC)c2cc(OC)ccc2c1 [N^2-(4,6-dimethoxy-2-naphthylsulfonyl)-L-arginyl-N-(2-methoxyethyl)glycine] | 660 to 1000
CCSCCN(CC(=O)O)C(=O)[C@H](CCCNC(=N)N)NS(=O)(=O)c1ccc2cc(OC)c(OC)cc2c1 [N^2-(6,7-dimethoxy-2-naphthylsulfonyl)-L-arginyl-N-(2-ethylthioethyl)glycine] | > 1000
COc1cc2ccc(S(=O)(=O)N[C@@H](CCCNC(=N)N)C(=O)N3Cc4ccccc4CC3C(=O)O)cc2cc1OC (stereo partly drawn) [2-N^2-(6,7-dimethoxy-2-naphthylsulfonyl)-L-arginyl!-1,2,3,4-tetrahydroisoquinoline-3-carboxylic acid] | > 1000
CCOCCN(CCC(=O)O)C(=O)[C@H](CCCNC(=N)N)NS(=O)(=O)c1ccc2cc(OC)c(OC)cc2c1 [N^2-(6,7-dimethoxy-2-naphthylsulfonyl)-L-arginyl-N-(2-ethoxyethyl)-β-alanine] | 660 to 1000
COc1ccc2cc(S(=O)(=O)N[C@@H](CCCNC(=N)N)C(=O)N(CC3CCCCC3)[C@@H](C)C(=O)O)cc(OC)c2c1 [N^2-(4,6-dimethoxy-2-naphthylsulfonyl)-L-arginyl-N-cyclohexylmethylalanine] | > 1500
Cc1ccc2ccc(S(=O)(=O)N[C@@H](CCCNC(=N)N)C(=O)N(CC(=O)O)CC3CCCO3)cc2c1 (stereo partly drawn) [N^2-(7-methyl-2-naphthylsulfonyl)-L-arginyl-N-tetrahydrofurfurylglycine] | 600
CC1CCN(C(=O)[C@H](CCCNC(=N)N)NS(=O)(=O)c2cccc3ccccc23)C(C(=O)O)C1 (stereo partly drawn) [1-N^2-(1-naphthylsulfonyl)-L-arginyl!-4-methyl-2-piperidinecarboxylic acid] | 700 to 1000
COc1cc2ccc(S(=O)(=O)N[C@@H](CCCNC(=N)N)C(=O)N(CC(=O)O)C3CCCCC3)cc2cc1OC [N^2-(6,7-dimethoxy-2-naphthylsulfonyl)-L-arginyl-N-cyclohexylglycine] | 1500
COCCN(CC(=O)O)C(=O)[C@H](CCCNC(=N)N)NS(=O)(=O)c1ccc2cc(OC)c(OC)cc2c1 [N^2-(6,7-dimethoxy-2-naphthylsulfonyl)-L-arginyl-N-(2-methoxyethyl)glycine] | 1900 to 2400
CCCCN(C(=O)[C@H](CCCNC(=N)N)NS(=O)(=O)c1ccc2cc(OC)c(OC)cc2c1)[C@@H](C)C(=O)O [N^2-(6,7-dimethoxy-2-naphthylsulfonyl)-L-arginyl-N-butylalanine] | > 1500
COc1cc2ccc(S(=O)(=O)N[C@@H](CCCNC(=N)N)C(=O)N3Cc4ccccc4C3C(=O)O)cc2cc1OC (stereo partly drawn) [2-N^2-(6,7-dimethoxy-2-naphthylsulfonyl)-L-arginyl!-1-isoindolinecarboxylic acid] | > 1000
COc1ccc2ccc(S(=O)(=O)N[C@@H](CCCNC(=N)N)C(=O)N3CCOCC3C(=O)O)cc2c1 (stereo partly drawn) [4-N^2-(7-methoxy-2-naphthylsulfonyl)-L-arginyl!-3-morpholinecarboxylic acid] | > 1000

Target: T1, thrombin (Bos taurus, UniProt P00735)
T1 construct: clotting of bovine fibrinogen
Assay: fibrinogen coagulation time (concentration required to prolong the coagulation time by a factor of two)
Type: biochemical
Conditions: bovine fibrinogen, thrombin 5 units/ml, borate saline buffer pH 7.4, 25° C; control 50-55 seconds prolonged to 100-110 seconds
Protocol: The measurement of the fibrinogen coagulation time was conducted as follows:
Immediately after mixing, the reaction mixture was transferred from the ice bath to a bath maintained at 25° C. Coagulation times were taken as the period between the time of transference to the 25° C bath and the time of the first appearance of fibrin threads. […] The term "concentration required to prolong the coagulation time by a factor of two" is the concentration of an active ingredient required to prolong the normal coagulation time 50-55 seconds to 100-110 seconds.

SMILES | IC (2-fold clotting time) [µM]
COc1cc2ccc(S(=O)(=O)N[C@@H](CCCNC(=N)N)C(=O)N(Cc3ccccc3)C(C)C(=O)O)cc2cc1OC (stereo partly shown) [compound 120] | 2.5
Cc1ccc2ccc(S(=O)(=O)N[C@@H](CCCNC(=N)N)C(=O)N(CC(=O)O)CC3CCCCC3)cc2c1 [compound 146] | 14
COCCN(CC(=O)O)C(=O)[C@H](CCCNC(=N)N)NS(=O)(=O)c1ccc2cc(OC)c(OC)cc2c1 [compound 13] | 0.5
COc1cc2ccc(S(=O)(=O)N[C@@H](CCCNC(=N)N)C(=O)N3Cc4ccccc4CC3C(=O)O)cc2cc1OC (stereo partly shown) [compound 194] | 2
COCCN(CC(=O)O)C(=O)[C@H](CCCNC(=N)N)NS(=O)(=O)c1ccc2ccc(C)cc2c1 [compound 144] | 0.2
COCCN(CC(=O)O)C(=O)[C@H](CCCNC(=N)N)NS(=O)(=O)c1cccc2ccc(C)cc12 [compound 151] | 20
CCCCN(CC(=O)O)C(=O)[C@H](CCCNC(=N)N)NS(=O)(=O)c1cc(OC)c2cc(OC)ccc2c1 [compound 25] | 2
CCCCN(CC(=O)O)C(=O)[C@H](CCCNC(=N)N)NS(=O)(=O)c1ccc2cc(OC)ccc2c1 [compound 31] | 0.5
COCCN(CC(=O)Oc1cccc(C)c1)C(=O)[C@H](CCCNC(=N)N)NS(=O)(=O)c1ccc2cc(OC)c(OC)cc2c1 [compound 202] | 20
CCOc1cc2ccc(S(=O)(=O)N[C@@H](CCCNC(=N)N)C(=O)N(CCOC)CC(=O)O)cc2cc1OCC [compound 27] | 15
CCCCN(CC(=O)O)C(=O)[C@H](CCCNC(=N)N)NS(=O)(=O)c1cccc2c1CCCC2 [compound 130] | 20
COc1cc2ccc(S(=O)(=O)N[C@@H](CCCNC(=N)N)C(=O)N(CCC(=O)O)Cc3ccccc3)cc2cc1OC [compound 52] | 10
COc1cc2ccc(S(=O)(=O)N[C@@H](CCCNC(=N)N)C(=O)N3Cc4ccccc4C3C(=O)O)cc2cc1OC (stereo partly shown) [compound 195] | 1.5
COc1ccc2cc(S(=O)(=O)N[C@@H](CCCNC(=N)N)C(=O)N(CCCC(=O)O)Cc3ccccc3)ccc2c1 [compound 60] | 50
CC(C)C1CCN(C(=O)[C@H](CCCNC(=N)N)NS(=O)(=O)c2ccc3ccccc3c2)C(C(=O)O)C1 (stereo partly shown) [compound 181] | 0.5
COc1ccc2ccc(S(=O)(=O)N[C@@H](CCCNC(=N)N)C(=O)N(C)C(Cc3ccccc3)C(=O)O)cc2c1 (stereo partly shown) [compound 211] | 2.5
Cc1ccc2ccc(S(=O)(=O)N[C@@H](CCCNC(=N)N)C(=O)N3CCC(C)CC3C(=O)O)cc2c1 (stereo partly shown) [compound 173] | 0.2
CCCCCCN(CC(=O)O)C(=O)[C@H](CCCNC(=N)N)NS(=O)(=O)c1ccc2cc(OC)c(OC)cc2c1 [compound 9] | 1.5
Cc1ccc2ccc(S(=O)(=O)N[C@@H](CCCNC(=N)N)C(=O)N(CC(=O)O)CC3CCCO3)cc2c1 (stereo partly shown) [compound 160] | 0.25
N=C(N)NCCC[C@H](NS(=O)(=O)c1ccc2c(c1)CCCC2)C(=O)N(CC(=O)O)Cc1ccccc1 [compound 133] | 30
CCCN(CC(=O)O)C(=O)[C@H](CCCNC(=N)N)NS(=O)(=O)c1ccc2cc(OC)c(OC)cc2c1 [compound 1] | 8

Source: patent US4073913A, “N^2 -arylsulfonyl-L-argininamides and the pharmaceutically acceptable salts thereof” (Mitsubishi Chemical Industries Limited, priority 1974, dated 1978)
